Measured values reported in patent US6762189B1, “5-pyrimidinecarboxamide derivatives and the pharmaceutical compositions containing said derivatives” (Dong Wha Pharm. Ind. Co., Ltd., priority 1999, dated 2004).

Key:
HBV polymerase = target: T1, HBV polymerase (Hepatitis B virus genotype A2 subtype adw2, UniProt P03159); assay: In vitro reverse transcription activity of HBV polymerase (ELISA-type, DIG/biotin nucleotides); assay type: biochemical; conditions: read-out: Inhibition activity on HBV-RT (%); for inhibition at 0.01 µg/mL: 0.01 μg/ml test compound; for inhibition at 0.1 µg/mL: 0.1 μg/ml test compound; for inhibition at 1 µg/mL: 1 μg/ml test compound
T1 construct: made in house; host or cells: E. coli
T1 sequence (P03159 whole entry): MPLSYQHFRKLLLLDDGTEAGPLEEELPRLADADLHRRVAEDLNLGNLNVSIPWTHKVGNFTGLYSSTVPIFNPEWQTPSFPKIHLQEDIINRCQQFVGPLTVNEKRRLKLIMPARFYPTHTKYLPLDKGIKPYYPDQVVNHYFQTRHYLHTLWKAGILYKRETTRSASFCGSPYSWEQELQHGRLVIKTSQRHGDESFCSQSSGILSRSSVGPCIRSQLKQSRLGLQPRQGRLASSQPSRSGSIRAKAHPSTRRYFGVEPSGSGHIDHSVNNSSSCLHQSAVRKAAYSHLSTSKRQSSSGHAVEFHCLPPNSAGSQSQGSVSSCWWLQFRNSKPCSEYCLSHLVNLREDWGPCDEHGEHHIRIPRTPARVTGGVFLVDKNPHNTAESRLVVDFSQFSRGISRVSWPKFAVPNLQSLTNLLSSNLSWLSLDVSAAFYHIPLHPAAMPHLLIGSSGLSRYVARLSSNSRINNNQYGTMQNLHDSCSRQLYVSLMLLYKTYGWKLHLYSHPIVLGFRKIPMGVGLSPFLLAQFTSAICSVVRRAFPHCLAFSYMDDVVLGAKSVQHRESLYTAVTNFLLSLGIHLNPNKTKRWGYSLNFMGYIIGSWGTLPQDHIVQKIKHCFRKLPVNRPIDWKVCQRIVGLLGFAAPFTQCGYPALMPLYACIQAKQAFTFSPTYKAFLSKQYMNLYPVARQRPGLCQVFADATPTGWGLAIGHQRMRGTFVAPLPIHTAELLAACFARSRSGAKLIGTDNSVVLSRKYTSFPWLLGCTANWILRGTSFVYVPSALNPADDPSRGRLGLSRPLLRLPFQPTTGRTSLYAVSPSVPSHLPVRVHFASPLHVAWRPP
Protocol: The following in vitro experiment was performed to determine the effect of the compounds of formula 1 on the activity of HBV polymerase during reverse transcription.
The present inventors submitted application for a patent concerning HBV polymerase genetically expressed in and separated from E. coli, the process of its preparation, and the method to measure the enzyme activities (KR 94-3918, KR 96-33998). In the present experiments HBV polymerase was used which had been expressed in E. coli as stated above.
The method used in the present invention to measure in vitro reverse transcribing activities of HBV polymerase is as follows. Basic principles are the same as for ELISA. Nucleotides with biotin or digoxigenin group attached are included as substrates and anti-DIG antibodies attached to peroxidase enzyme recognize the polymerized substrates.
To the wells coated with streptavidin, 20 μl of HBV polymerase, 20 μl of reaction mixture (10 μM each of DIG-UTP and Biotin-UTP, 46 mM Tris-HCl, 266 mM KCl, 27.5 mM MgCl2, 9.2 mM DTT substrate/primer hybrid), and 20 μl of test compound (added to 1, 0.1, and 0.01 μg/ml) were added and allowed to react a 22° C. for 15 hrs. During this reaction, HBV polymerase catalyzes DNA synthesis and digoxigenin and biotin attached to nucleotides form bonds with streptavidin coated on the bottom of wells. When the reaction was done, each well was washed with 250μl of cleaning buffer (pH 7.0) for 30 seconds, which was repeated five times to remove remaining impurities. 200 μl of anti-DIG-POD antibody was added to each well and allowed to react for 1 hr at 37° C., and the wells were washed with cleaning buffer to remove impurities. 200μl each of ABTS™, a substrate of peroxidase, was then added and allowed to react at room temperature for 30 min. Absorbance was measured at 405 nm using ELISA reader.
The percentage of reduction in HBV polymerase activities for reverse transcription was calculated using the group without test compound as a control and the results are shown in Table 3.

[1] = target: T2, HIV reverse transcriptase (Human immunodeficiency virus type 1 group M subtype B, UniProt P04585); assay: In vitro HIV reverse transcriptase activity (non-radioactive reverse transcriptase assay kit); assay type: biochemical; conditions: for Inhibitory effect on the activities of HIV reverse transcriptase, Inhibition activity on HBV-RT (%): 0.1 μg/ml test compound; for Inhibition of HIV reverse transcriptase activity: 1 μg/ml test compound
T2 construct: activities of HIV reverse transcriptase; purchased Boehringer Mannheim
Protocol: The following in vitro experiments were done to determine the effect of compounds of formula 1 on the reduction of HIV enzyme activities in reverse transcription.
Non-radioactive reverse transcriptase assay kit (Boehringer Mannheim) was used in the measurement of in vitro transcriptase activities. 20 μl (40 ng) of HIV transcriptase and 20 μl of reaction mixture containing matrix-primer hybrid poly (A) oligo (dT) 15, DIG(digoxigenin)-dUTP, biotin-dUTP, and TTP were added to wells coated with streptavidin. Test compounds were also added at the final concentrations of 0.1 and 1 μg/ml and allowed to react at 37° C. for 1 hr. At this time, DNA is formed from RNA by the action of HIV transcriptase, forming bonds with streptavidin coated on the bottom of wells because of digoxigenin and biotin moieties attached to nucleotides.
When the reaction was completed, each well was washed with 250 μl. of cleaning buffer (pH 7.0) for 30 sec. five times to remove remaining impurities. 200 μl of anti-DIG-POD […] was added to each well, allowed to react at 37° C. for 1 hr and washed as above to remove impurities. 200 μl of ABTS™, a substrate for peroxidase, was added to each well and allowed to react at room temperature for 30min. Absorbance at 405 nm was then read for each solution using ELISA reader and used for quantitative determination of inhibitory effect on the HIV transcriptase activities. The percentage of reduction in the activities of HIV reverse transcriptase was calculated using the group without test compound as control and the results are represented in Table 5.

HBV = assay: Inhibition of HBV proliferation in HBV producing cell line HepG 2.2.15 (competitive PCR of culture supernatant); assay type: cell-based, Hepatitis B virus; conditions: Hepatitis B virus, HepG2.2.15, 168 h, HepG 2.2.15, one week, read-out: Inhibitory effect on the HBV proliferation, Inhibition activity on HBV-RT (%); for inhibition at 0.01 µg/mL: 0.01 μg/ml; for inhibition at 0.1 µg/mL: 0.1 μg/ml; for inhibition at 1 µg/mL: 1 μg/ml
Protocol: The following experiment was performed to determine inhibitory effects of compounds of formula on the proliferation of HBV producing cell line.
To test for antiviral effect, replication and proliferation of HBV were measured in HepG 2.2.15, a human liver cancer cell line.
The cell concentration was adjusted to 1×10^5 cells/ml and 1 ml was added to each well of a 24-well cell culture plate, which was then kept in a culture box for 3-4 days at 37° C. under 5% CO2 until cells grew sufficiently, changing culture medium everyday. When the cells matured sufficiently, the test compounds were added to the final concentrations of 0.01, 0.1, and 1 μg/ml. One week after the addition of test compounds, he culture solution was centrifuged at 5,000 rpm for 10 min. 25 μl of supernatant was transferred to a new tube and 5 μl of lysis solution [0.54N NaOH, 0.06% NP40] was added to each tube. After keeping the tube at 37° C. for 1 hr, 30 μl . of neutralizing solution [0.09NHCl, 0.1MTris-HCl, pH7.4] was added as a reaction solution for competitive polymerase chain reaction (PCR).
PCR was performed using genetic sequence of HBV core protein as a matrix. PCR reaction was carried out by adding 1 unit of Taq polymerase enzyme to 25 pmol of each primer, 250 μM dNTP, 5 μl of PCR reaction solution [0.54N NaOH, 0.06% NP40, 0.09N HCl, 0.1M Tris-HCl, pH 7.4].
DNA polymerized by PCR was electrophoresed on Agarose gel and quantitatively analyzed using an image analyzer (Gel Dcc 1000, Bio-Rad) in order to evaluate the effect of compounds of the present invention on the reduction of HBV proliferation.
3TC (lamivudine) was used as a positive control at the same concentrations as those of the test compounds. The percentage of reduction in HBV proliferation was calculated using the group without test compound as a control and the results are represented in Table 4.

[2] = Cytotoxicity test on HepG2 cells (MTT); assay type: cell-based; conditions: human, read-out: Cytotoxity on HepG2, IC50 (50% Inhibitory Concentration)
HepG2 cells = assay: Cytotoxicity test on HepG2 cells (MTT); assay type: cell-based

SMILES	inhibition at 0.01 µg/mL (HBV polymerase) [%]	inhibition at 0.1 µg/mL (HBV polymerase) [%]	inhibition at 1 µg/mL (HBV polymerase) [%]	Inhibitory effect on the activities of HIV reverse transcriptase, Inhibition activity on HBV-RT (%) [1] [%]	Inhibition of HIV reverse transcriptase activity [1] [%]	melting point [°C]	inhibition at 0.01 µg/mL (HBV) [%]	inhibition at 0.1 µg/mL (HBV) [%]	inhibition at 1 µg/mL (HBV) [%]	IC50 [2] [mg/L]	Cytotoxity on HepG2, MCD (Minimal Cytotoxic Concentration) (HepG2 cells) [µg/mL]
CSc1ncc(C(=O)NCCCn2ccnc2)c(Nc2ccc3[nH]ncc3c2)n1 [Example 29, N-[3-(1H-1-imidazolyl)propyl]-4-(1H-5-indazolylamino)-2-methylthio-5-pyrimidinecarboxamide]	41	56	80	44	72	121 to 125	–	–	–	–	–
CSc1ncc(C(=O)NCCN(C)C)c(Nc2ccc3cn[nH]c3c2)n1 [Example 18, N-[2-(dimethylamino)ethyl]-4-(1H-6-indazolylamino)-2-methylthio-5-pyrimidinecarboxamide]	54	66	92	51	77	162 to 167	43	57	88	–	–
CNC(=O)c1cnc(SC)nc1Nc1ccc2cn[nH]c2c1 [Example 4, 4-(1H-6-Indazolylamino)-N-methyl-2-methylthio-5-pyrimidinecarboxamide]	52	77	96	42	70	–	32	70	94	> 100	100
CNC(=O)c1cnc(SC)nc1Nc1ccc2[nH]ncc2c1 [Example 3, 4-(1H-5-Indazolylamino)-N-methyl-2-methylthio-5-pyrimidine carboxamide]	34	59	88	48	62	–	15	42	75	> 100	100
CSc1ncc(C(=O)NCCN2CCOCC2)c(Nc2ccc3[nH]ncc3c2)n1 [Example 19, 4-(1H-5-indazolylamino)-2-methylthio-N-[2-(4-morpholinyl)ethyl]-5-pyrimidinecarboxamide]	10	39	64	48	75	113 to 117	–	–	–	–	–
CSc1ncc(C(=O)NCCO)c(Nc2ccc3cn[nH]c3c2)n1 [Example 8, N-(2-hydroxyethyl)-4-(1H-6-indazolylamino)-2-methylthio-5-pyrimidine Carboxamide]	50	68	95	–	–	–	40	72	88	> 100	100
CSc1ncc(C(=O)N(C)C)c(Nc2ccc3cn[nH]c3c2)n1 [Example 16, N,N-dimethyl-4-(1H-6-indazolylamino)-2-methylthio-5-pyrimidinecarboxamide]	10	30	54	53	81	164 to 166	–	–	–	–	–
